Assay results reported in paper PMC8429421, “Structural basis for the tryptophan sensitivity of TnaC-mediated ribosome stalling” (Nature Communications, 2021).

Molecular target: T1, TnaC–ribosome complex (TnaC–70S) (Escherichia coli, UniProt P0AD89+P61175)
T1 construct: nascent 24-residue TnaC as peptidyl-tRNA(Pro) in E. coli 70S ribosome; L-Trp site formed by TnaC, uL22 Lys90 and 23S rRNA (Psi746, G748, A752, U2609); cell-free translation (PURExpress; RTS100 HY for cryo-EM)
Experiment: toeprinting of stalled ribosomes in reconstituted cell-free translation, hyperbolic fit; cryo-EM structure […] Å
Format: biochemical
Conditions: PURExpress lacking amino acids, other 19 amino acids 0.3 mM each, 37 °C, 30 min; arrest at codon 24; apparent functional value, not an equilibrium constant; read-out: [L-Trp]0.5

T1 sequence (P0AD89 whole entry, one chain of several): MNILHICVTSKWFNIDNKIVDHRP

- EC50: 320 µM
SMILES: N[C@@H](Cc1c[nH]c2ccccc12)C(=O)O [L-Trp]
